Data taken from ChEMBL document CHEMBL1121775, “Synthesis and antimalarial effects of N2-aryl-N4-[(dialkylamino)alkyl]- and N4-aryl-N2-[(dialkylamino)alkyl]-2,4-quinazolinediamines” (J Med Chem, 1981).
Values joined by “and” are separate entries in the source; they are usually repeats but may differ in a detail not shown here. Equal values may be shown once.

Columns and labels:
Plasmodium berghei [1] = experiment: Antimalarial effect against trophozoite-induced Plasmodium berghei in mice (Mus musculus) at 160 mg/kg subcutaneous dose; assay type: functional
Plasmodium berghei [2] = experiment: (§1) Antimalarial effect against trophozoite-induced Plasmodium berghei in mice (Mus musculus) at 640 mg/kg subcutaneous dose; assay type: functional
Plasmodium berghei [3] = experiment: Antimalarial effect against trophozoite-induced Plasmodium berghei in mice (Mus musculus) at 320 mg/kg subcutaneous dose; assay type: functional
Plasmodium berghei [4] = experiment: Antimalarial effect against trophozoite-induced Plasmodium berghei in mice (Mus musculus) after 20 mg/kg subcutaneous dose; assay type: functional
Plasmodium berghei [5] = experiment: Antimalarial effect against trophozoite-induced Plasmodium berghei in mice (Mus musculus) after 40 mg/kg subcutaneous dose; assay type: functional
Plasmodium berghei [6] = experiment: Antimalarial activity against trophozoite-induced Plasmodium berghei in mice (Mus musculus); assay type: functional
Plasmodium berghei [7] = experiment: Antimalarial effect against trophozoite-induced Plasmodium berghei in mice (Mus musculus) at 80 mg/kg subcutaneous dose; assay type: functional
[8] = The ratio of SD90 of the quinine hydrochloride, to the SD90 of the test substance for the Dose of 80 mg/kg; assay type: functional
Mus musculus [9] = experiment: Number of toxic deaths at a dose of 320 mg/kg; assay type: toxicity, organism-based; design: dose 320 mg/kg; conditions: in vivo
Mus musculus [10] = experiment: Antimalarial effect against trophozoite induced Plasmodium berghei in mice (Mus musculus) at dosage of 160 mg/kg after subcutaneous administration; No. of mice (Mus musculus) surviving after 60 days 2; assay type: functional
[11] = The ratio of SD90 of the quinine hydrochloride, to the SD90 of the test substance for the Dose of 155 mg/kg; assay type: functional
Mus musculus [12] = experiment: Antimalarial effect against trophozoite-induced Plasmodium berghei in mice (Mus musculus) at dosage of 80 mg/kg after subcutaneous administration; assay type: functional
Mus musculus [13] = experiment: Number of toxic deaths at a dose of 640 mg/kg; assay type: toxicity, organism-based; design: dose 640 mg/kg; conditions: in vivo
Plasmodium berghei [14] = experiment: Antimalarial activity against trophozoite-induced Plasmodium berghei in mice (Mus musculus) at 160 mg/kg subcutaneous dose; assay type: functional
Mus musculus [15] = experiment: Number of mice cured at a subcutaneous dose of 640 mg/kg.; assay type: functional
[16] = The ratio of SD90 of the quinine hydrochloride, to the SD90 of the test substance for the Dose of 37 mg/kg/day; assay type: functional
[17] = The ratio of SD90 of the quinine hydrochloride, to the SD90 of the test substance for the Dose of >34 mg/kg; assay type: functional
Mus musculus [18] = experiment: Number of mice cured at a subcutaneous dose of 160 mg/kg.; assay type: functional
Mus musculus [19] = experiment: Number of mice cured at a dose of 640 mg/kg sc; assay type: functional; conditions: route subcutaneous
[20] = The ratio of SD90 of the quinine hydrochloride, to the SD90 of the test substance for the Dose of 6.3 mg/kg; assay type: functional
Plasmodium berghei [21] = experiment: as §1; assay type: functional; remark: listed apart in the source
[22] = The ratio of SD90 of the quinine hydrochloride, to the SD90 of the test substance for the Dose of >33 mg/kg; assay type: functional
[23] = The ratio of SD90 of the quinine hydrochloride, to the SD90 of the test substance for the Dose of 36 mg/kg; assay type: functional
Mus musculus [24] = experiment: Antimalarial effect against trophozoite induced Plasmodium berghei in mice (Mus musculus) at dosage of 40 mg/kg after subcutaneous administration; assay type: functional
[25] = The ratio of SD90 of the quinine hydrochloride, to the SD90 of the test substance for the Dose of 11 mg/kg; assay type: functional
Mus musculus [26] = experiment: Number of mice cured at a subcutaneous dose of 320 mg/kg.; assay type: functional
[27] = The ratio of SD90 of the quinine hydrochloride, to the SD90 of the test substance for the Dose of 40 mg/kg; assay type: functional
[28] = The ratio of SD90 of the quinine hydrochloride, to the SD90 of the test substance for the Dose of 38 mg/kg; assay type: functional
[29] = The ratio of SD90 of the quinine hydrochloride, to the SD90 of the test substance for the Dose of 45 mg/kg; assay type: functional
Mus musculus [30] = experiment: Number of toxic deaths at a dose of 160 mg/kg; assay type: toxicity, organism-based; design: dose 160 mg/kg; conditions: in vivo
Mus musculus [31] = experiment: Antimalarial effect against trophozoite-induced Plasmodium berghei in mice (Mus musculus) at dosage of 320 mg/kg after subcutaneous administration;; assay type: functional
[32] = The ratio of SD90 of the quinine hydrochloride, to the SD90 of the test substance for the Dose of 8.4 mg/kg; assay type: functional
Mus musculus [33] = experiment: Number of mice cured at a dose of 320 mg/kg sc; assay type: functional; conditions: route subcutaneous, 320 mg/kg
[34] = The ratio of SD90 of the quinine hydrochloride, to the SD90 of the test substance for the Dose of 30 mg/kg; assay type: functional
Mus musculus [35] = experiment: Antimalarial effect against trophozoite induced Plasmodium berghei in mice (Mus musculus) at dosage of 320 mg/kg after subcutaneous administration; No. of mice (Mus musculus) surviving after 60 days 3; assay type: functional
Mus musculus [36] = experiment: Antimalarial effect against trophozoite induced Plasmodium berghei in mice (Mus musculus) at dosage of 160 mg/kg after subcutaneous administration.; assay type: functional
[37] = The ratio of SD90 of the quinine hydrochloride, to the SD90 of the test substance for the Dose of 68 mg/kg; assay type: functional
Mus musculus [38] = experiment: Antimalarial effect against trophozoite induced Plasmodium berghei in mice (Mus musculus) at dosage of 640 mg/kg after subcutaneous administration; No. of mice (Mus musculus) surviving after 60 days 2; assay type: functional

Row | Compound | MST (Plasmodium berghei [1]; 160 mg/kg) | MST (Plasmodium berghei [3]) | MST (Plasmodium berghei [4]) | MST (Plasmodium berghei [5]; 40 mg/kg) | SD90 (Plasmodium berghei [6]) | MST (Plasmodium berghei [7]) | MST (Plasmodium berghei [5]) | No. of survivals (Mus musculus [19]) | other results
1 | Clc1cc(Cl)cc(Nc2nc(NCCN3CCCC3)c3ccccc3n2)c1 | 3.5 days and 4.1 days | 5.9 days | 0.5 days | 0.9 days and 1.3 days | 80 mg/kg/day | 1.7 days | – | – | MST (Plasmodium berghei [2]; 640 mg/kg): 10.7 days and 10.3 days; Ratio [8]: 0.9
2 | CCN(CC)Cc1cc(Nc2nc(NC3CCC(N(C)C)CC3)c3ccccc3n2)ccc1OC (stereo not given) | – | – | 7.5 days | 7.7 days and 7.2 days | 155 mg/kg/day | – | – | – | No. of toxic deaths (Mus musculus [9]): 5; MST (Mus musculus [10]): 16.3 days; Ratio [11]: 0.5; MST (Mus musculus [12]): 13 days; No. of toxic deaths (Mus musculus [13]): 5; MST (Plasmodium berghei [14]): 13 days; No. of cured (Mus musculus [15]): 3
3 | FC(F)(F)c1ccc(Nc2nc(NCCN3CCCC3)c3ccccc3n2)cc1 | 4.8 days and 3.4 days | 10.2 days | 0.2 days | 0.4 days and 0.8 days | 37 mg/kg/day | 2.4 days | – | – | MST (Plasmodium berghei [2]; 640 mg/kg): 16.2 days and 13.2 days; Ratio [16]: 2
4 | CCOc1ccc(Nc2nc(NCCN(CC)CC)c3ccc(Cl)cc3n2)cc1CN1CCCC1 | – | – | – | – | >34 mg/kg/day | – | – | – | Ratio [17]: <2.2
5 | Clc1ccc(Nc2nc(NCCCN3CCCC3)c3ccccc3n2)cc1Cl | – | – | – | – | 12 mg/kg/day | – | 5.2 days | 5 | No. of survivals (Mus musculus [18]): 4; Ratio [20]: 12
6 | CCOc1ccc(Nc2nc(NCCN(CC)CC)c3cc(Cl)ccc3n2)cc1CN1CCCC1 | 4.8 days and 4.6 days | 7.8 days | 0.2 days | 0.6 days and 0.2 days | >33 mg/kg/day | 1 days | – | – | No. of toxic deaths (Mus musculus [9]): 2; MST (Plasmodium berghei [21]; 640 mg/kg): 13.3 days and 12.8 days; No. of toxic deaths (Mus musculus [13]): 3; Ratio [22]: <2.3
7 | CCN1CCCC(Nc2nc(Nc3cc(Cl)cc(Cl)c3)nc3ccc(Cl)cc23)C1 (stereo not given) | – | 6.4 days | 0.2 days | – | 36 mg/kg/day | 0.6 days | 0.2 days | 3 | MST (Plasmodium berghei [1]): 1 days; MST (Plasmodium berghei [21]; 640 mg/kg): 7.8 days and 4.8 days; Ratio [23]: 2.1; MST (Mus musculus [24]): 0.4 days
8 | OC1CCCN(CCCNc2nc(Nc3ccc(Cl)cc3)nc3ccccc23)C1 (stereo not given) | 10.4 days and 11.3 days | 17.5 days | 0.2 days | 2.2 days and 2.5 days | 11 mg/kg/day | 4.6 days | – | 2 | Ratio [25]: 6.8; MST (Plasmodium berghei [21]; 640 mg/kg): 26.1 days and 23.9 days; No. of survivals (Mus musculus [26]): 2
9 | CCN(CC)CCNc1nc(Nc2ccc(OC)c(CN(CC)CC)c2)nc2ccccc12 | – | – | 0.4 days | – | 40 mg/kg/day | 5.6 days | 2.8 days | 2 | MST (Plasmodium berghei [1]): 8.6 days; No. of toxic deaths (Mus musculus [9]): 1; No. of toxic deaths (Mus musculus [13]): 1; No. of survivals (Mus musculus [26]): 2; Ratio [27]: 1.9
10 | CCN1CCCC(Nc2nc(Nc3ccc(Cl)cc3)nc3ccccc23)C1 (stereo not given) | 10.6 days and 11.4 days | 20 days | 0.2 days | 0.4 days and 0.6 days | 38 mg/kg/day | 3 days | – | – | MST (Plasmodium berghei [21]; 640 mg/kg): 28.3 days and 28.8 days; Ratio [28]: 2; No. of cured (Mus musculus [15]): 3
11 | CCOc1ccc(Nc2nc(NCCN(CC)CC)c3cc(Cl)ccc3n2)cc1CN(CC)CC | – | – | 0.2 days | – | 45 mg/kg/day | 3.2 days | 0.8 days | – | No. of toxic deaths (Mus musculus [9]): 4; Ratio [29]: 1.6; No. of toxic deaths (Mus musculus [30]): 1; MST (Mus musculus [31]): 5.8 days; No. of toxic deaths (Mus musculus [13]): 5; MST (Plasmodium berghei [14]): 4.3 days
12 | CCN1CCC(CNc2nc(Nc3ccc(Cl)c(Cl)c3)nc3ccccc23)CC1 | – | – | 0.7 days | 7.5 days and 7.3 days | 8.4 mg/kg/day | 9.1 days | – | – | Ratio [32]: 8.9; No. of cured (Mus musculus [33]): 5 and 4; MST (Plasmodium berghei [14]; 160 mg/kg): 23.9 days and 27.9 days; No. of cured (Mus musculus [15]): 5
13 | CCN(CC)CCNc1nc(Nc2ccc(Cl)c(Cl)c2)nc2ccc([N+](=O)[O-])cc12 | 7 days and 7.3 days | – | – | 0.4 days and 0.7 days | 30 mg/kg/day | – | – | – | MST (Plasmodium berghei [2]): 20.6 days; MST (Plasmodium berghei [3]; 320 mg/kg): 10.4 days and 10.9 days; MST (Plasmodium berghei [4]; 20 mg/kg): 0.2 days and 0.3 days; Ratio [34]: 2.5; MST (Plasmodium berghei [7]; 80 mg/kg): 1.2 days and 1.5 days
14 | CCN1CCC(CNc2nc(Nc3ccc(C(F)(F)F)cc3)c3ccccc3n2)CC1 | – | 8.9 days | 0.3 days | – | – | – | 0.5 days | 4 | MST (Plasmodium berghei [1]): 7.3 days; MST (Mus musculus [35]): 9.4 days; No. of survivals (Mus musculus [18]): 1; MST (Plasmodium berghei [21]): 21.9 days; No. of survivals (Mus musculus [26]): 3; MST (Plasmodium berghei [7]; 80 mg/kg): 0.5 days and 0.7 days; MST (Plasmodium berghei [14]): 3.9 days
15 | Clc1ccc(Nc2nc(NCCN3CCCC3)c3ccccc3n2)cc1 | – | 18.2 days | 0.1 days | 0.7 days and 1.1 days | 68 mg/kg/day | 1.1 days | – | – | MST (Plasmodium berghei [1]): 6.7 days; MST (Mus musculus [36]): 6.1 days; Ratio [37]: 1.1; MST (Plasmodium berghei [21]): 25.4 days; MST (Mus musculus [38]): 24.6 days; No. of cured (Mus musculus [15]; 640 mg/kg): 3 and 1
